Results reported in PubChem BioAssay (NCI).
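Values below derive from 48-hour exposures of cells grown in 96-well plates, with endpoints linearly interpolated between the two concentrations bracketing the appropriate inhibition level. At the GI50, growth is halved. At the TGI there is no net growth.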

Experiments:
Assay in all cases: DTP human tumour cell line panel, 48 h
HS 578T breast = tested on: HS 578T breast
OVCAR-3 ovarian = tested on: OVCAR-3 ovarian
SNB-19 CNS = tested on: SNB-19 CNS
IGROV1 ovarian = tested on: IGROV1 ovarian
DU-145 prostate = tested on: DU-145 prostate
HCC-2998 colon = tested on: HCC-2998 colon
M14 melanoma = tested on: M14 melanoma
HCT-15 colon = tested on: HCT-15 colon
OVCAR-4 ovarian = tested on: OVCAR-4 ovarian
EKVX NSCLC = tested on: EKVX NSCLC
SK-OV-3 ovarian = tested on: SK-OV-3 ovarian
NCI-H522 lung = tested on: NCI-H522 lung
RPMI-8226 leukemia = tested on: RPMI-8226 leukemia
MDA-MB-231 breast = tested on: MDA-MB-231 breast
SK-MEL-5 melanoma = tested on: SK-MEL-5 melanoma
786-0 renal = tested on: 786-0 renal
HL-60(TB) leukemia = tested on: HL-60(TB) leukemia
K-562 leukemia = tested on: K-562 leukemia
TK-10 renal = tested on: TK-10 renal
KM12 colon = tested on: KM12 colon
SF-539 CNS = tested on: SF-539 CNS
HOP-62 NSCLC = tested on: HOP-62 NSCLC
SNB-75 CNS = tested on: SNB-75 CNS
A549 NSCLC = tested on: A549 NSCLC
MDA-MB-435 = tested on: MDA-MB-435
CAKI-1 renal = tested on: CAKI-1 renal
OVCAR-5 ovarian = tested on: OVCAR-5 ovarian
UACC-62 melanoma = tested on: UACC-62 melanoma
NCI/ADR-RES ovarian = tested on: NCI/ADR-RES ovarian
LOX IMVI melanoma = tested on: LOX IMVI melanoma
UACC-257 melanoma = tested on: UACC-257 melanoma
PC-3 prostate = tested on: PC-3 prostate
HOP-92 NSCLC = tested on: HOP-92 NSCLC
SW-620 colon = tested on: SW-620 colon
BT-549 breast = tested on: BT-549 breast
MALME-3M melanoma = tested on: MALME-3M melanoma
MCF7 breast = tested on: MCF7 breast
NCI-H23 lung = tested on: NCI-H23 lung
NCI-H460 lung = tested on: NCI-H460 lung
SF-268 CNS = tested on: SF-268 CNS
ACHN renal = tested on: ACHN renal
MOLT-4 leukemia = tested on: MOLT-4 leukemia
SN12C renal = tested on: SN12C renal
SK-MEL-28 melanoma = tested on: SK-MEL-28 melanoma
RXF 393 renal = tested on: RXF 393 renal
OVCAR-8 ovarian = tested on: OVCAR-8 ovarian
UO-31 renal = tested on: UO-31 renal
SF-295 CNS = tested on: SF-295 CNS
COLO 205 colon = tested on: COLO 205 colon
SR leukemia = tested on: SR leukemia
SK-MEL-2 melanoma = tested on: SK-MEL-2 melanoma
U251 CNS = tested on: U251 CNS
A498 renal = tested on: A498 renal
HT29 colon = tested on: HT29 colon
CCRF-CEM leukemia = tested on: CCRF-CEM leukemia
NCI-H226 lung = tested on: NCI-H226 lung
T-47D breast = tested on: T-47D breast
HCT-116 colon = tested on: HCT-116 colon

NS(=O)(=O)c1ccc(Nc2ncc(-c3ccccc3)o2)cc1
GI50 (HS 578T breast): 20.5 µM | TGI (HS 578T breast): > 25 µM | GI50 (OVCAR-3 ovarian): > 25 µM | TGI (OVCAR-3 ovarian): > 25 µM | GI50 (SNB-19 CNS): > 25 µM | TGI (SNB-19 CNS): > 25 µM | GI50 (IGROV1 ovarian): > 25 µM | TGI (IGROV1 ovarian): > 25 µM | GI50 (DU-145 prostate): > 25 µM | TGI (DU-145 prostate): > 25 µM | GI50 (HCC-2998 colon): > 25 µM | TGI (HCC-2998 colon): > 25 µM | GI50 (M14 melanoma): > 25 µM | TGI (M14 melanoma): > 25 µM | GI50 (HCT-15 colon): > 25 µM | TGI (HCT-15 colon): > 25 µM | GI50 (OVCAR-4 ovarian): > 25 µM | TGI (OVCAR-4 ovarian): > 25 µM | GI50 (EKVX NSCLC): > 25 µM | TGI (EKVX NSCLC): > 25 µM | GI50 (SK-OV-3 ovarian): > 25 µM | TGI (SK-OV-3 ovarian): > 25 µM | GI50 (NCI-H522 lung): > 25 µM | TGI (NCI-H522 lung): > 25 µM | GI50 (RPMI-8226 leukemia): > 25 µM | TGI (RPMI-8226 leukemia): > 25 µM | GI50 (MDA-MB-231 breast): > 25 µM | TGI (MDA-MB-231 breast): > 25 µM | GI50 (SK-MEL-5 melanoma): > 25 µM | TGI (SK-MEL-5 melanoma): > 25 µM | GI50 (786-0 renal): > 25 µM | TGI (786-0 renal): > 25 µM | GI50 (HL-60(TB) leukemia): > 25 µM | TGI (HL-60(TB) leukemia): > 25 µM | GI50 (K-562 leukemia): > 25 µM | TGI (K-562 leukemia): > 25 µM | GI50 (TK-10 renal): > 25 µM | TGI (TK-10 renal): > 25 µM | GI50 (KM12 colon): > 25 µM | TGI (KM12 colon): > 25 µM | GI50 (SF-539 CNS): > 22.9 µM | TGI (SF-539 CNS): > 25 µM | GI50 (HOP-62 NSCLC): > 25 µM | TGI (HOP-62 NSCLC): > 25 µM | GI50 (SNB-75 CNS): > 9.68 µM | TGI (SNB-75 CNS): > 25 µM | GI50 (A549 NSCLC): > 25 µM | TGI (A549 NSCLC): > 25 µM | GI50 (MDA-MB-435): > 25 µM | TGI (MDA-MB-435): > 25 µM | GI50 (CAKI-1 renal): > 25 µM | TGI (CAKI-1 renal): > 25 µM | GI50 (OVCAR-5 ovarian): > 25 µM | TGI (OVCAR-5 ovarian): > 25 µM | GI50 (UACC-62 melanoma): > 25 µM | TGI (UACC-62 melanoma): > 25 µM | GI50 (NCI/ADR-RES ovarian): > 25 µM | TGI (NCI/ADR-RES ovarian): > 25 µM | GI50 (LOX IMVI melanoma): > 25 µM | TGI (LOX IMVI melanoma): > 25 µM | GI50 (UACC-257 melanoma): > 25 µM | TGI (UACC-257 melanoma): > 25 µM | GI50 (PC-3 prostate): > 25 µM | TGI (PC-3 prostate): > 25 µM | GI50 (HOP-92 NSCLC): > 25 µM | TGI (HOP-92 NSCLC): > 25 µM | GI50 (SW-620 colon): > 22.1 µM | TGI (SW-620 colon): > 25 µM | GI50 (BT-549 breast): > 25 µM | TGI (BT-549 breast): > 25 µM | GI50 (MALME-3M melanoma): > 25 µM | TGI (MALME-3M melanoma): > 25 µM | GI50 (MCF7 breast): > 25 µM | TGI (MCF7 breast): > 25 µM | GI50 (NCI-H23 lung): > 25 µM | TGI (NCI-H23 lung): > 25 µM | GI50 (NCI-H460 lung): > 25 µM | TGI (NCI-H460 lung): > 25 µM | GI50 (SF-268 CNS): > 25 µM | TGI (SF-268 CNS): > 25 µM | GI50 (ACHN renal): > 25 µM | TGI (ACHN renal): > 25 µM | GI50 (MOLT-4 leukemia): > 25 µM | TGI (MOLT-4 leukemia): > 25 µM | GI50 (SN12C renal): > 25 µM | TGI (SN12C renal): > 25 µM | GI50 (SK-MEL-28 melanoma): > 25 µM | TGI (SK-MEL-28 melanoma): > 25 µM | GI50 (RXF 393 renal): > 25 µM | TGI (RXF 393 renal): > 25 µM | GI50 (OVCAR-8 ovarian): > 25 µM | TGI (OVCAR-8 ovarian): > 25 µM | GI50 (UO-31 renal): > 25 µM | TGI (UO-31 renal): > 25 µM | GI50 (SF-295 CNS): > 25 µM | TGI (SF-295 CNS): > 25 µM | GI50 (COLO 205 colon): > 23.7 µM | TGI (COLO 205 colon): > 25 µM | GI50 (SR leukemia): 9.69 µM | TGI (SR leukemia): > 25 µM | GI50 (SK-MEL-2 melanoma): > 25 µM | TGI (SK-MEL-2 melanoma): > 25 µM | GI50 (U251 CNS): > 25 µM | TGI (U251 CNS): > 25 µM | GI50 (A498 renal): > 19.6 µM | TGI (A498 renal): > 25 µM | GI50 (HT29 colon): > 25 µM | TGI (HT29 colon): > 25 µM | GI50 (CCRF-CEM leukemia): > 25 µM | TGI (CCRF-CEM leukemia): > 25 µM | GI50 (NCI-H226 lung): > 25 µM | TGI (NCI-H226 lung): > 25 µM | GI50 (T-47D breast): > 25 µM | TGI (T-47D breast): > 25 µM | GI50 (HCT-116 colon): > 25 µM | TGI (HCT-116 colon): > 25 µM
